In patent publication US10857105B2, “Compounds and compositions for intracellular delivery of therapeutic agents” (ModernaTX, Inc., priority 2017, dated 2020):

Key:
[1] = Chemical stability of lipids in ethanol at room temperature and 37° C. (lipid purity); format: physicochemical
Experimental: Ester linkages were previously reported to trigger metabolism by esterases in vivo. (See Fukami, T. et al. Drug Metab. Pharmacokinet. 2012, 27, 466-477, the content of which is incorporated by reference herein in its entirety). […] (See Maier M. A., Mol. Ther. 2013, 21, 1570-1578, the content of which is incorporated herein in its entirety) First, the chemical stability of the lipids was evaluated by measuring ethanol stability at room temperature and 37° C. (Table 39). […] LNPs formed with compound 138 were larger, with a surface pKa>7. […] Removal of one ester function (compound 136) afforded LNPs with improved physiochemical characteristics and lower LNP surface pKa.

[2] = tested on: IL-6, IP-10; assay: Cytokine induction (IL-6, IP-10) in mice 6 hours after intravenous administration; format: in vivo; parameters: unit not given here; details: intravenous 0.5 mpk
How it was run: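 Mice dosed intravenously with nanoparticle compositions at 0.5 mpk; serum cytokine concentrations (IL-6, IP-10) measured at 6 hours. MC3 formulation and PBS controls run alongside.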

[3] = tested on: hEPO mRNA; assay: hEPO expression and cytokine induction after intravenous administration to mice; format: in vivo; details: mice
Experimental: FIG. 17 is a graph showing the hEPO mRNA expression in CD1-mice measured 3 h (left block), 6 h (middle block) and 24 h (right block) after intravenous administration of various nanoparticle compositions. Numbers 1-13 refer to compositions containing an mRNA expressing hEPO and the following: 1: Compound 147, 2: Compound 184, 3: Compound 232; 4: Compound 189; 5: Compound 200; 6: Compound 233; 7: Compound 234; 8: Compound 235; 9: Compound 237; 10: Compound 239; 11: Compound 243; 12: MC3; 13: PBS. […]
Sample formulations of nanoparticle compositions including different lipids are generally first evaluated according to Luc expression in vivo. The activity of several such compositions was further evaluated using an mRNA encoding hEPO. Nanoparticle compositions including Compounds 6, 18, 25, 30, 108-112, 60, and 122, or MC3 were prepared according to Example 2.
(§1) The expression of hEPO and cytokine induction in mice intravenously administered a nanoparticle composition at a dose of 0.5 mpk were measured at 3, 6, and 24 hours. […] The expression of hEPO in mice intramuscularly administered a nanoparticle composition from Table 1B at a dose of 0.01 mpk were measured at 3, 6, and 24 hours. […] (see
Table 12 compares the nanoparticle compositions including compounds according to Formula (I), (IA), (IB), (II), (IIa), (IIb), (IIc), (IId), (IIe), (IIf), (IIg), or (III) to the compositions including MC3 on the basis of expression and flux levels. […] Thus, these lipids may be useful in nanoparticle composition therapeutics.

[4] = tested on: modified luciferase; assay: Luciferase expression in liver, lung, spleen and femur 6 hours after intravenous administration to mice; format: in vivo; details: 6 hours after intravenous 0.5 mpk, mice
How it was run: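 Nanoparticle formulations of the modified luciferase were given intravenously to mice (n=3) at 0.5 mpk. Bioluminescence was measured after 6 hours as total light flux. Standard MC3 formulation and PBS run as controls.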

[5] = tested on: CD-1 mice; assay: Luciferase expression after intravenous delivery of luciferase mRNA LNPs (bioluminescent imaging); format: in vivo; details: intravenous 0.5 mg/kg mRNA dose
Experimental: Whole body and ex vivo organ bioluminescent imaging of mice: CD-1 mice were injected 15 minutes prior to the imaging timepoint intraperitoneally (IP) with 200 μL Xenolight D-luciferin K+ salt, diluted in PBS just prior to use to a concentration of 15 mg/mL. Ex vivo imaging of organs was completed, within 25 minutes of luciferin administration. All images were quantified by region of interest for total flux.
[…] […] (See Semple, S.C. et al., Nature Biotech. 2010. 28, 172-176, Jayaraman, M., et al. Angew. Chem. Int. Ed. 2012, 51, 8529-8533, the entire contents of each of which are incorporated by reference herein in their entireties). To evaluate the efficiency of the new amino lipids, LNPs using the novel compounds were tested in vivo in mice using luciferase mRNA as a reporter. An MC3 LNP was included as a control in each experiment, enabling the comparison of LNPs from experiment to experiment. Measured luciferase activity also enabled the determination of protein bio-distribution.

[6] = tested on: luciferase (Luc) mRNA; assay: Luciferase expression (whole body bioluminescence) after intravenous administration to mice; format: in vivo; details: intravenous, luciferase; for Novel lipid/MC3 ratio, i.v.: Table 3G, 6 hr. timepoint, relative to MC3; for Novel lipid/MC3 expression ratio, i.v.: 6 hr. time point, relative to MC3 formulation
How it was run: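 Mice (n=6) received lipid nanoparticle formulations carrying luciferase mRNA intravenously at 0.5 mg/kg. Whole-body bioluminescence was measured at 3, 6 and 24 h. Total flux was taken as area under the curve and expressed relative to a standard MC3 formulation.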

[7] = Particle size and polydispersity index of nanoparticle compositions (Zetasizer Nano ZS); format: physicochemical
How it was run: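 Size and PDI measured by Zetasizer Nano ZS in 1×PBS (zeta potential in 15 mM PBS). Lipid nanoparticles contained test ionizable lipid:DSPC:cholesterol:PEG-DMG at 50:10:38.5:1.5 mol % with N1-methyl-pseudouridine mRNA encoding luciferase or hEPO.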

[8] = Encapsulation efficiency of RNA in nanoparticle compositions (RIBOGREEN assay); format: physicochemical
How it was run: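 Lipid nanoparticles (ionisable lipid:DSPC:cholesterol:PEG-DMG 50:10:38.5:1.5 mol %) carrying N1-methylpseudouridine luciferase or hEPO mRNA diluted to about 5 μg/mL in TE, pH 7.5, with or without 2% Triton X-100, 15 min at 37° C. RiboGreen fluorescence (ex ~480, em ~520 nm) blank-subtracted; free RNA = intact/disrupted signal.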

[9] = tested on: modified luciferase (Luc) mRNA and H10 mRNA; assay: Expression after intramuscular administration of formulations including Luc mRNA and H10 mRNA; format: in vivo
Experimental: Sample formulations including both modified luciferase (Luc) mRNA and H10 mRNA were prepared and administered intramuscularly and the resulting expression and immunogenicity were evaluated simultaneously. Formulations including compounds according to Formula (I), (IA), (IB), (II), (IIa), (IIb), (IIc), (IId), (IIe), (IIf), (IIg), or (III) were prepared and administered at doses of 0.001 and 0.01 mpk (e.g., doses of 0.0005 mpk of a formulation including Luc mRNA and a formulation including H10 mRNA or doses of 0.005 mpk of a formulation including Luc mRNA and a formulation including H10 mRNA).
The fluxes measured upon intravenous and intramuscular administration are compared in Table 6. Fluxes are presented as fold increase over that measured for MC3 formulations.

[10] = tested on: luciferase (Luc) mRNA; assay: Luciferase expression after intramuscular administration to mice; format: in vivo; details: intramuscular; for Total flux 6 hours after intramuscular administration, 0.01 mpk Dose: Luc mRNA
How it was run: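 CD-1 mice received lipid nanoparticle formulations of modified luciferase mRNA intramuscularly at 0.01 mpk. Bioluminescence total flux was measured, including at 6 h, and AUC was expressed relative to MC3 formulations. Immunogenicity was assessed in parallel.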

[11] = tested on: hEPO mRNA; assay: hEPO expression after intramuscular administration to mice; format: in vivo; details: intramuscular, hEPO; for Novel lipid/MC3 ratio, i.m. hEPO: Table 3G, 6 hr. timepoint, relative to MC3
Experimental: The numbers 1-11 in this figure correspond to MC3, Compounds 18, 25, 30, 108-112, 60, and 122 respectively.
as §1

[12] = tested on: hEPO mRNA; assay: Pretreatment study (methotrexate or dexamethasone) with MC3 formulation in Cynomolgus monkeys; format: in vivo; details: MC3 formulation with hEPO mRNA, once weekly for four weeks
From the text: In order to combat negative effects, nanoparticle compositions are co-administered with one or more substances (e.g., co-medications or additional therapeutic and/or prophylactics) to subjects. Potentially useful additional therapeutic and/or prophylactics include steroids (e.g., corticosteroids), anti-histamines, H1 receptor blockers, H2 receptor blockers, anti-inflammatory compounds, statins, BTK inhibitors, S1P1 agonists, glucocorticoid receptor modulators (GRMs), and estradiols. Non-human primates are pretreated with one or more additional therapeutic agents selected from dexamethasone and acetaminophen. The additional therapeutic agent is administered either 24 hours, 1 hour, or both 24 hours and 1 hour before administration of a nanoparticle composition. Cytokine profiles, inflammation, and other parameters are measured and compared to evaluate the effectiveness of pretreatment
The effects of pretreatment to non-human primates were evaluated using a standard MC3 formulation including an mRNA encoding hEPO. Male monkeys were administered the nanoparticle composition once weekly for four weeks at a dose rate of 5 ml/kg/h and were pretreated with either methotrexate or dexamethasone.
As shown, in the absence of any pretreatment, maximal expression levels decreased nearly 70% over the course of the study.

[13] = Table 1A, lipid:DSPC:cholesterol:PEG-DMG 50:10:38.5:1.5 mol %
[14] = Table 1C, compositions for subcutaneous administration
[15] = Table 1B, formulated with hEPO mRNA

Size [7, 13] [nm] | Size [7, 14] [nm] | Size [7, 15] [nm] | EE [8, 15] [%] | SMILES | Cytokine induction, IL-6 [2] | Cytokine induction, IP-10 [2] | Total Flux, Femur [4] | Total Flux, Liver [4] | Total Flux, Lung [4] | Total Flux, Spleen [4] | Novel lipid/MC3 ratio, i.v. [6] | Novel lipid/MC3 expression ratio, i.v. [6] | EE [8, 13] [%] | Total flux 6 hours after intramuscular administration, 0.01 mpk Dose [10] [p/s] | Novel lipid/MC3 ratio, i.m. hEPO [11] | also measured
– | – | – | – | CCCCC/C=C\C/C=C\CCCCCCCCN(CCO)CCCCCCCC(=O)OC(CCCCCCCC)CCCCCCCC [Compound 6, Heptadecan-9-yl 8-((2-hydroxyethyl)((9Z,12Z)-octadeca-9,12-dien-1-yl)amino)octanoate] | 136.18 | 316.01 | 2.15E+06 | 1.09E+09 | 4.30E+06 | 3.03E+07 | – | – | – | – | – | Lipid Purity, t = 96 h, 25° C. ([1]; 96 h, 25° C.): 93.21%; Lipid Purity, t = 96 h, 37° C. ([1]; 96 h, 37° C.): 94.29%; Lipid Purity, t = 0 ([1]; t = 0): 93.80%; hEPO expression, 3 h ([3]; intravenous 0.5 mpk, 3 h): 2.31e+06 pg/mL; Cytokine expression, IL-6 (6 h) ([3]; intravenous 0.5 mpk, 6 h): 10.15 pg/mL; Cytokine expression, IP-10 (6 h) ([3]; intravenous 0.5 mpk, 6 h): 116.66 pg/mL; hEPO expression, 6 h ([3]; intravenous 0.5 mpk, 6 h): 3.17e+06 pg/mL; hEPO expression, 24 h ([3]; intravenous 0.5 mpk, 24 h): 1.11e+06 pg/mL; hEPO concentrations compared with MC3 formulations ([3]; intravenous, 0.5 mpk, 3, 6 and 24 hours): higher hEPO concentrations than MC3 formulations at each time point; luciferase activity/expression compared to MC3 LNP control (words) [5]: Equivalent expression to MC3 LNPs
91.5 | 91.5 | 73.3 | 92.39 | CCCCCCCCCOC(=O)CCCCCCCN(CCCCCCCC(=O)OC(CCCCCCCC)CCCCCCCC)CCCNC(=O)N(C)C [Compound 110, Heptadecan-9-yl 8-((3-(3,3-dimethylureido)propyl)(8-(nonyloxy)-8-oxooctyl)amino)octanoate] | – | – | – | 2.30E+08 | 5.76E+06 | 1.41E+08 | 0.19 | 0.19 | – | 1.21E+08 | 1.2 | –
83.7 | 83.7 | 60.6 | 96.40 | CCCCCCCCCOC(=O)CCCCCCCN(CCCCCCCC(=O)OC(CCCCCCCC)CCCCCCCC)CCCNC(=O)NC [Compound 112, Heptadecan-9-yl 8-((3-(3-methylureido)propyl)(8-(nonyloxy)-8-oxooctyl)amino)octanoate] | – | – | – | 1.48E+08 | 1.83E+06 | 2.75E+07 | 0.08 | 0.08 | – | 9.47E+07 | 1.6 | –
102.3 | – | – | – | CCCCCCCCCOC(=O)CCCCCCCN(CCCCCCCC(=O)OC(CCCCCCCC)CCCCCCCC)CCCN/C(=N/C#N)N(C)C [Compound 168, Heptadecan-9-yl (Z)-8-((3-(2-cyano-3,3-dimethylguanidino)propyl)(8-(nonyloxy)-8-oxooctyl)amino)octanoate] | – | – | – | – | – | – | – | 0.11 | 91.4 | – | – | Size ([7]; Table 1D, compositions for subcutaneous administration, # formulated with hEPO mRNA): 87.4 nm; Size ([7]; Table 1E, compositions for subcutaneous administration): 85.0 nm; Novel lipid/MC3 expression ratio, i.m. Luc ([10]; luciferase, 6 hr. time point, relative to MC3 formulation): 16.0; Novel lipid/MC3 expression ratio, i.m. hEPO ([11]; 6 hr. time point, relative to MC3 formulation): 6.3
– | – | – | – | CN(Cc1cnc2nc(N)nc(N)c2n1)c1ccc(C(=O)N[C@@H](CCC(=O)O)C(=O)O)cc1 [Methotrexate, methotrexate] | – | – | – | – | – | – | – | – | – | – | – | Effect of pretreatment on protein expression [12]: did not confer any particular beneficial effect

SMILES | Size [7, 13] [nm] | Size [7, 14] [nm] | Size [7, 15] [nm] | EE [8, 15] [%] | Cytokine induction, IL-6 [2] | Cytokine induction, IP-10 [2] | Total Flux, Femur [4] | Total Flux, Liver [4] | Total Flux, Lung [4] | Total Flux, Spleen [4] | Novel lipid/MC3 ratio, i.v. [6] | Novel lipid/MC3 expression ratio, i.v. [6] | EE [8, 13] [%] | Total flux 6 hours after intramuscular administration, 0.01 mpk Dose [10] [p/s] | Novel lipid/MC3 ratio, i.m. hEPO [11] | also measured
CCCCCCCCCOC(=O)CCCCCCCN(CCCCO)CCCCCCCC(=O)OC(CCCCCCCC)CCCCCCCC [Compound 20, Heptadecan-9-yl 8-((4-hydroxybutyl)(8-(nonyloxy)-8-oxooctyl)amino) octanoate] | 86.7 | 86.7 | – | – | 126.83 | 2468.24 | 1.31E+07 | 1.84E+09 | 2.66E+07 | 1.43E+08 | 0.80 | 0.80 | 96.72 | – | – | Expression upon intramuscular administration ([9]; doses of 0.001 and 0.01 mpk, 6 hours): highest expression at both dose levels; Fold increase in Luc expression over MC3 upon intramuscular administration ([9]; intramuscular): highest fold increase
